Some test systems named below: HCT-116 colon; RXF 393 renal; RPMI-8226 leukemia; COLO 205 colon; IGROV1 ovarian; HCC-2998 colon; SK-MEL-2 melanoma; NCI-H460 lung; NCI-H522 lung.
Common to all, as to experiment: inhibition of tumour cell growth, NCI panel, 48 h

Molecules are shown by their SMILES.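 Step 1: Grow cells in 96-well plates. Step 2: Expose to compound for 48 hours at 5 concentrations. Step 3: Interpolate endpoints linearly; if unreached, use highest concentration. GI50 is the concentration that inhibits growth by half. TGI: total growth inhibition.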

Our source for the TGI and GI50 values is PubChem BioAssay (NCI).

For `COC(=O)N/N=C(\C)c1sc(-c2nc(C)c(/C(C)=N/NC(=O)OC)s2)nc1C`, the TGI with HCT-116 colon, with RXF 393 renal, in the assay with RPMI-8226 leukemia, with COLO 205 colon, in the assay on IGROV1 ovarian and with HCC-2998 colon was above 100 µM each time. Besides, the TGI with SK-MEL-2 melanoma, in the assay with NCI-H460 lung and in the assay with NCI-H522 lung was above 100 µM each time.
Regarding `O=[N+]([O-])c1ccc(/C=C/c2ccc(/C=C/c3ccc([N+](=O)[O-])cc3[N+](=O)[O-])cc2)c([N+](=O)[O-])c1`, the TGI in the assay on HCT-116 colon, with RXF 393 renal, with RPMI-8226 leukemia, with IGROV1 ovarian, with HCC-2998 colon and in the assay on SK-MEL-2 melanoma was above 100 µM throughout. The TGI in the assay on NCI-H460 lung was above 100 µM.
Take `CN(C)c1ccc(/C=C2\CCc3ccccc3C2=O)cc1Br`: the TGI is above 100 µM in the assay with HCT-116 colon; above 100 µM in the assay with RXF 393 renal; 72.9 µM in the assay with RPMI-8226 leukemia; above 100 µM with COLO 205 colon; above 100 µM with HCC-2998 colon; above 100 µM in the assay on SK-MEL-2 melanoma. The TGI in the assay with NCI-H460 lung and in the assay on NCI-H522 lung was above 100 µM throughout.
For `CNS(=O)(=O)NNS(=O)(=O)c1ccc(C)cc1`, the TGI in the assay on HCT-116 colon, with RXF 393 renal, in the assay with RPMI-8226 leukemia, in the assay on COLO 205 colon, with IGROV1 ovarian and with HCC-2998 colon was above 100 µM each time. For the same molecule, the TGI in the assay on SK-MEL-2 melanoma, in the assay on NCI-H460 lung and with NCI-H522 lung was above 100 µM throughout.
For the molecule `Nc1ccccc1C(=O)/C=C/c1ccccc1O`, the TGI with HCT-116 colon is above 100 µM; with RXF 393 renal it was above 100 µM; in the assay on RPMI-8226 leukemia, 78.4 µM; with COLO 205 colon it was above 100 µM; with IGROV1 ovarian it was above 100 µM; with HCC-2998 colon, above 100 µM. Besides, the TGI in the assay on SK-MEL-2 melanoma, with NCI-H460 lung and in the assay with NCI-H522 lung was above 100 µM each time.
Consider `CN(C)CCNC(=O)c1cccc2c1nc(-c1cccnc1)c1ccccc12`, for which the TGI in the assay with HCT-116 colon worked out at 13.8 µM; with RXF 393 renal, 17.1 µM; in the assay with COLO 205 colon it was 16.4 µM; with IGROV1 ovarian, 26.3 µM; in the assay with HCC-2998 colon, 20.2 µM; in the assay with SK-MEL-2 melanoma, 22.8 µM. In the assay on NCI-H460 lung, this molecule showed a TGI of 12.5 µM.
On to `CCC12C=C(C(=O)OC)N3c4ccccc4C4CCN(CCC1)C2C43` (stereo not drawn), for which the TGI in the assay on HCT-116 colon, in the assay with RXF 393 renal, in the assay with RPMI-8226 leukemia, in the assay with COLO 205 colon, in the assay on IGROV1 ovarian and with HCC-2998 colon was above 100 µM in each case. Besides, the TGI with SK-MEL-2 melanoma and with NCI-H522 lung was above 100 µM throughout.
For the molecule `Cc1ccccc1NC(=O)CC(=O)NNCC(=O)Nc1nnc(-c2ccccc2)s1`, the TGI was above 100 µM in the assay with HCT-116 colon; 75.1 µM in the assay with RPMI-8226 leukemia; above 100 µM in the assay on COLO 205 colon; above 100 µM with IGROV1 ovarian; above 100 µM with HCC-2998 colon; above 100 µM in the assay on SK-MEL-2 melanoma. Besides, the TGI in the assay with NCI-H460 lung and with NCI-H522 lung was above 100 µM throughout.
`CC(C)(C)C1CC[C@H]2c3c([nH]c4ccccc34)[C@H]3C(=O)N(c4ccc(F)cc4)C(=O)[C@H]3[C@H]2C1` (stereo partly drawn): the TGI with HCT-116 colon amounted to 25 µM; in the assay on RXF 393 renal, 43.9 µM; with COLO 205 colon, 30.4 µM; in the assay on IGROV1 ovarian, 35.3 µM; with HCC-2998 colon, 28.4 µM; in the assay on SK-MEL-2 melanoma, 33.2 µM. Moreover, the TGI with NCI-H460 lung is 26.4 µM; with NCI-H522 lung, 25.3 µM.
Take `N#CC1(CCCCl)CCCCC1`: the TGI in the assay on HCT-116 colon, in the assay on RXF 393 renal, in the assay with COLO 205 colon, in the assay on IGROV1 ovarian, in the assay with HCC-2998 colon and in the assay with SK-MEL-2 melanoma was above 100 µM in each case. In addition, the TGI in the assay on NCI-H460 lung and in the assay with NCI-H522 lung was above 100 µM throughout.
In the case of `O/N=C1/C(=C/c2ccc(OCc3ccccc3)cc2)CCCC1C(NO)c1ccc(OCc2ccccc2)cc1` (stereo not drawn), the TGI was above 100 µM with HCT-116 colon; 24.9 µM in the assay on RXF 393 renal; above 100 µM in the assay on COLO 205 colon; above 100 µM in the assay with IGROV1 ovarian; above 100 µM in the assay with HCC-2998 colon; above 100 µM in the assay on SK-MEL-2 melanoma. Besides, the values for the TGI in the assay on NCI-H460 lung and in the assay with NCI-H522 lung were above 100 µM and 48 µM, respectively.
On to `CCCCCNC(=O)CCCCCCCCCCCNC(=O)CCCCCCCCCCN1C=CC(=CC=C2C=CC(=O)C=C2)C=C1`, for which the TGI in the assay with HCT-116 colon was above 100 µM; with RXF 393 renal it was above 100 µM; with RPMI-8226 leukemia, above 100 µM; in the assay with COLO 205 colon it was 28.6 µM; in the assay with IGROV1 ovarian it was above 100 µM; in the assay with HCC-2998 colon, above 100 µM. Moreover, the TGI with NCI-H460 lung and with NCI-H522 lung was above 100 µM throughout.
`O=C1Nc2ccc(Cl)cc2/C1=N/c1nc(-c2ccc(Cl)cc2)cs1`: the GI50 with HCT-116 colon was 1.3 µM; in the assay with COLO 205 colon it was 1.69 µM; in the assay with SK-MEL-2 melanoma, 1.93 µM. Also, the TGI amounted to 2.71 µM in the assay with HCT-116 colon, 4.18 µM in the assay with COLO 205 colon and 4.85 µM in the assay on SK-MEL-2 melanoma.
`c1cc(OCCCCCOc2cccc(-c3nc4ccccc4[nH]3)c2)cc(-c2nc3ccccc3[nH]2)c1`: the GI50 was 2.07 µM in the assay with HCT-116 colon; 1.47 µM in the assay with COLO 205 colon; 0.324 µM in the assay on IGROV1 ovarian; 3.32 µM in the assay on HCC-2998 colon; 2.05 µM with SK-MEL-2 melanoma; 2.6 µM in the assay on NCI-H460 lung. Also, the GI50 with NCI-H522 lung is 2.48 µM. Besides, the TGI is above 100 µM in the assay on HCT-116 colon; 2.79 µM in the assay on COLO 205 colon; above 100 µM with IGROV1 ovarian; 28 µM with HCC-2998 colon; 5.67 µM in the assay on SK-MEL-2 melanoma; above 100 µM with NCI-H460 lung. In the assay with NCI-H522 lung, this molecule came in with a TGI above 100 µM.
For `COc1cc2c(cc1C)NC(=O)/C2=C\c1ccc(Oc2ccccc2)cc1`, the GI50 in the assay on HCT-116 colon is 5.85 µM; in the assay with RXF 393 renal, 19.4 µM; in the assay on RPMI-8226 leukemia, 12.1 µM; in the assay with COLO 205 colon it was 20.7 µM; in the assay on IGROV1 ovarian it was 15.7 µM; with HCC-2998 colon it was 16.3 µM. The GI50 in the assay with SK-MEL-2 melanoma is 17 µM; in the assay with NCI-H522 lung, 12.4 µM. In addition, the TGI in the assay with HCT-116 colon turned out to be 17.7 µM; in the assay with RXF 393 renal it was 40.6 µM; in the assay on RPMI-8226 leukemia, 31.6 µM; in the assay with COLO 205 colon it was 36.9 µM; with IGROV1 ovarian, 36.9 µM; in the assay on HCC-2998 colon, 29.9 µM. In addition, the figures for the TGI in the assay with SK-MEL-2 melanoma and with NCI-H522 lung were 40.9 µM and 42 µM, respectively.
Regarding `Cc1ccccc1NC(=O)C1C(=O)N(c2ccccc2C)C(=O)/C1=N\NC(N)=O` (stereo not drawn), the TGI in the assay on HCT-116 colon, in the assay with RXF 393 renal, in the assay on COLO 205 colon, in the assay with IGROV1 ovarian, in the assay on HCC-2998 colon and in the assay with SK-MEL-2 melanoma was above 100 µM throughout. Further, the TGI with NCI-H460 lung and with NCI-H522 lung was above 100 µM in each case.
Take `CN(C)c1ccc(/C=c2/sc3nc(=O)c(-c4ccccc4NC(=O)C(F)(F)F)nn3c2=O)cc1`: the TGI in the assay on RXF 393 renal, in the assay on COLO 205 colon, with IGROV1 ovarian, in the assay with HCC-2998 colon, in the assay on SK-MEL-2 melanoma and in the assay with NCI-H460 lung was above 100 µM throughout. The same molecule registered a TGI with NCI-H522 lung above 100 µM.
Turning to `CCCCC(C(=O)C(=O)Nc1ccccc1CC)C(=O)C(C)C` (stereo not drawn), the TGI with HCT-116 colon, in the assay with RPMI-8226 leukemia, with COLO 205 colon, in the assay on IGROV1 ovarian, in the assay with HCC-2998 colon and in the assay with SK-MEL-2 melanoma was above 100 µM throughout. Also, the TGI in the assay with NCI-H460 lung and in the assay with NCI-H522 lung was above 100 µM throughout.
Take `O=C(CC1(O)C(=O)Nc2c(Cl)ccc(Cl)c21)c1ccc(Cl)cc1` (stereo not drawn): the TGI was determined as 70.6 µM in the assay on HCT-116 colon; 56.8 µM in the assay with RXF 393 renal; 55.1 µM in the assay with RPMI-8226 leukemia; 32.8 µM with COLO 205 colon; 57.7 µM in the assay with IGROV1 ovarian; 71 µM in the assay on HCC-2998 colon. The figures for the TGI in the assay on SK-MEL-2 melanoma and with NCI-H460 lung were 86.4 µM and 61.9 µM, respectively.
As for `CC(C)(C)c1ccc(OCCOCCOc2ccc(C(C)(C)C)cc2S(N)(=O)=O)c(S(N)(=O)=O)c1`, the TGI with HCT-116 colon, in the assay with RXF 393 renal, with RPMI-8226 leukemia, in the assay with COLO 205 colon, in the assay on IGROV1 ovarian and in the assay on HCC-2998 colon was above 100 µM throughout. In addition, the TGI in the assay on SK-MEL-2 melanoma and with NCI-H460 lung was above 100 µM throughout.
Turning to `N#Cc1c(CC(=O)O)cc(=O)n2c1[nH]c1ccccc12`, the TGI in the assay on HCT-116 colon, in the assay with RXF 393 renal, in the assay with RPMI-8226 leukemia, in the assay on COLO 205 colon, in the assay on IGROV1 ovarian and with HCC-2998 colon was above 100 µM each time. Moreover, the TGI in the assay on SK-MEL-2 melanoma and in the assay on NCI-H460 lung was above 100 µM throughout.
Turning to `COC(=O)C1CC(=O)O[C@H]1c1ccc(OC)c(OC)c1` (stereo partly drawn), the TGI in the assay on HCT-116 colon, in the assay on RXF 393 renal, in the assay on RPMI-8226 leukemia, with COLO 205 colon, in the assay with IGROV1 ovarian and in the assay on HCC-2998 colon was above 100 µM throughout. The TGI with SK-MEL-2 melanoma and with NCI-H460 lung was above 100 µM throughout.
